Results published in patent publication US11078164B1, “PTEN binding compounds, formulations, and uses thereof” (University of South Florida, priority 2017, dated 2021).
Entries after “also recorded” stand apart in the source; their conditions may differ.

What was measured:
Assay type in all cases: cell-based
A549 cells [1] = test: Cell proliferation assay (Cell Counting Kit-8); conditions: 24 hours treatment; 9000 cells/well; n=6
Experimental: Proliferation Assays. Cell proliferation studies were performed using the Cell Counting Kit-8 (Dojindo Molecular Technologies, Rockville, Md.). A549 cells were plated in a 96-well plate with a cell density of about 9000 cells/well and cultured in F12K medium as described above. Cells were treated with indicated amount of γ-AAPeptide diluted in F12K media for 24 hours. After 24 hours, final cell numbers were assessed as a function of absorbance at 450 nm of reduced WST-(2-(2-methoxy-4-nitrophenyl)-3-(4-nitrophenyl)-5-(2,4-disulfophenyl)-2H-tetrazolium, monosodium salt).

p-AKT (Ser473) = test: Immunoblot of p-AKT (Ser473) in treated A549 cells; conditions: 6 hours; for expression of p-AKT (Ser473), immunoblot: 40 μM, n=3; for decrease in phosphorylated, active form of AKT (pAKT-Ser473): about 40 μM
Experimental: (§1) PTEN antagonizes PI3K/AKT/S6K pathway activation via its lipid phosphatase function (Stambolic et al., 1998, Cell, October 2; 95(1):29-39, Sun H., et al., 1999, Proc Natl Acad Sci USA. 1999 May 25; 96(11):6199-204 and Song, M. S. et al., 2012, Molecular Cell Biology 13, 283-296). A549 lung adenocarcinoma cells were treated with either γ-AAPeptide #43 or #9 for 6 hours to determine the activity of PI3K/AKT/S6K downstream pathway effectors. There was about a 30 percent and about 70 decrease in the phosphorylated, active form of AKT (pAKT-Ser473) upon treatment with 40 μM γ-AAPeptide #43 (FIG. 2A) or about 40 μM γ-AAPeptide #9 (FIG. 2B) respectively. […] However, direct allosteric effects of these compounds on the structure and catalytic function of the PTEN enzyme activity remains highly plausible.
(§2) Protein Isolation and Immuno-blotting. For treatment with γ-AAPeptides, A549 cells were grown to about 50-60% confluency in 6-well plates, treated with indicated amount of γ-AAPeptide and allowed to incubate for 6 hours at about 5% CO2 and 37° C. After about 6 hours, media was aspirated and cells were lysed in ice cold IP Lysis Buffer (25 mM Tris-HCl pH 7.4, about 150 mM NaCl, about 1% NP-40, about 1 mM EDTA, about 5% glycerol) supplemented with about 100× protease inhibitor cocktail (Sigma Aldrich, St. Louis, Mo.), phosphatase inhibitor cocktail (final concentration about 10 mM sodium azide, about 10 mM NaF, about 4 mM sodium orthovanadate, about 10 mM sodium-molybdate dehydrate, about 4 mM sodium-tartrate dibasic dehydrate, about 5 mM EDTA disodium dehydrate, about 2 mM imidazole), about 1 mM DTT and about 1 mM PMSF. Samples were sonicated at about 10% amplitude on a digital sonifier (Branson Ultrasonics, Dabury, Conn.), centrifuged at about 14,000 rpm for about 10 minutes and the supernatant was collected. Protein concentration was determined using Bradford Dye Reagent (BioRad, Hercules, Calif.). The remaining supernatant was boiled in about 100 μL of 2× Laemmli Buffer containing about 5% β-mercaptoethanol (Sigma Aldrich, St. Louis, Mo.) and subjected to SDS-PAGE gel analysis, followed by immunoblotting. About 20 μg of total proteins from A549 cell extract were separated on a about 12% SDS-PAGE gel and electro-blotted to nitrocellulose membranes (about 0.45 μm; GE Healthcare, Pittsburgh, Pa.). Blots were blocked with about 5% nonfat dry milk or bovine serum albumin in TBST buffer (about 10 mM Tris, pH about 8, about 150 mM NaCl, about 0.1% Tween 20) and incubated with indicated primary antibodies (Table 1). Peroxidase conjugated mouse or rabbit secondary antibodies were used at dilution of about 1:10,000 (Jackson ImmunoResearch, West Grove, Pa.). […]

A549 cells [2] = test: ECIS migration / wound closure assay; conditions: for wound closure efficiency (continuous impedance sensing): A549 cells, 12 hours prior to wounding, vs control cells; for cell migration (ECIS): A549 lung cancer cells
Experimental: Migration Assay. Migration assay was performed on the ECIS machine (Name, Address). Briefly, A549 cells were grown on electric cell substrate impedance sensing 8-well plate arrays (8W1E; Applied Biophysics, Troy, N.Y.) in F12K media as described above. Confluent cells were treated with media containing γ-AAPeptide at desired concentration for about 12 hours prior to wounding. Cells were wounded using an elevated field pulse of about […] at about 32,000 Hz applied for about 20 seconds, producing a uniform circular lesion of about […] in size, and wound closure was tracked until healing. The impedance (Z) was measured at about 32000 Hz, normalized to its value at the initiation of data acquisition, and plotted as a function of time. Assays were performed in triplicate and reported as mean±S.E. unless stated otherwise (p value of ≤0.05 was considered to be significant).

[3] = tested on: PTEN C-terminus (C-tail) cluster (Ser380, Thr382, Thr383, Ser385); test: Immunoblot of PTEN C-tail phosphorylation in treated A549 cells; conditions: about 40 μM
Experimental: as §1
Protein Isolation and Immuno-blotting. For treatment with γ-AAPeptides, A549 cells were grown to about 50-60% confluency in 6-well plates, treated with indicated amount of γ-AAPeptide and allowed to incubate for 6 hours at about 5% CO2 and 37° C. […] Protein concentration was determined using Bradford Dye Reagent (BioRad, Hercules, Calif.). […]

A549 cells [4] = test: Flow cytometry cell cycle analysis; conditions: for cell cycle arrest: 24 hour treatment, vs vehicle treated cells
Experimental: Flow Cytometry Assay for Cell Cycle Analysis. Cell cycle analysis was performed on A549 cells treated with indicated amount of γ-AAPeptide at about 50-60% confluency for about 24 hours. After about 24 hours of indicated γ-AAPeptide treatment, cells were trypsinized and centrifuged at about 2,000 rpm for about 10 minutes. Media and trypsin were aspirated and cells were washed twice with PBS and spun at about 2,000 rpm for about 10 minutes at about 4° C. after each wash. Cells were then stained with trypan blue (Thermo Fisher Scientific, Waltham, Mass.) and counted using a hemocytometer. Cells were resuspended in Phosphate Buffered Saline (PBS) at a density of about 2×10^6 cells/mL. 1 mL of cells was fixed in about 3 mL ice cold absolute ethanol for about 1 hour at about 4° C. After fixing, cells were washed twice with PBS and spun at about 3,000 rpm for about 10 minutes at about 4° C. after each wash. About 1 mL of Propidium Iodide (P1) staining solution (about 3.8 mM sodium citrate, about 40 μg/mL PI and PBS to volume) was added to each cell pellet, along with about 50 μL of RNase A (Qiagen, Hilden, Germany) at a concentration of about 10 μg/mL. Cells were incubated at about 37° C. for about 20 minutes and sub-sequentially stored at 4° C. until analyzed by flow cytometry. Assays were performed in triplicate and reported as mean±S.E. (p value of ≤0.05 was considered to be significant).

p-P70 S6K (Thr389) = test: Immunoblot of p-P70 S6K (Thr389) in treated A549 cells; conditions: 40 μM, 6 hours; for expression of p-P70 S6K (Thr389), immunoblot: n=3
Experimental: as §1, §2

NCCCC[C@H](N)C(=O)N[C@@H](Cc1ccccc1)CN(CC(=O)N(Cc1cccc2ccccc12)Cc1cccc2ccccc12)C(=O)C[C@]12CC3C[C@H](C[C@H](C3)C1)C2 [#9]
A549 cell proliferation (A549 cells [1]): reduced A549 cell proliferation in a dose dependent manner; also recorded: Dose-dependent inhibition | expression of p-AKT (Ser473), immunoblot (p-AKT (Ser473)): significant decrease | decrease in phosphorylated, active form of AKT (pAKT-Ser473) (p-AKT (Ser473)): about 70% | wound closure efficiency (continuous impedance sensing) (A549 cells [2]; 20 μM): decrease in wound closure efficiency | cell migration (ECIS) (A549 cells [2]): inhibit cell migration | phosphorylation status of the PTEN C-terminus (C-tail) cluster [3]: did not appear to alter | G1 cell population (A549 cells [4]; 20 μM, 24 hours): increase | G2 phase cell population (A549 cells [4]; 20 μM, 24 hours): increase | S phase population (A549 cells [4]; 20 μM, 24 hours): decreased | cell cycle arrest (A549 cells [4]): arrested the cell cycle in both G1 and G2 phases | reduction of phosphorylated, active form of P70S6K (p-P70S6K-Thr389) levels (p-P70 S6K (Thr389)): about 55% | expression of p-P70 S6K (Thr389), immunoblot (p-P70 S6K (Thr389)): significant decrease

NCCCC[C@H](N)C(=O)N[C@@H](Cc1ccccc1)CN(CC(=O)NCc1ccc(-c2ccccc2)cc1)C(=O)CC12CC3CC(CC(C3)C1)C2 [#43]
A549 cell proliferation (A549 cells [1]): reduced A549 cell proliferation in a dose dependent manner; also recorded: Dose-dependent inhibition | expression of p-AKT (Ser473), immunoblot (p-AKT (Ser473)): significant decrease | decrease in phosphorylated, active form of AKT (pAKT-Ser473) (p-AKT (Ser473)): ~30% | wound closure efficiency (continuous impedance sensing) (A549 cells [2]; 30 μM): decrease in wound closure efficiency | cell migration (ECIS) (A549 cells [2]): inhibit cell migration | phosphorylation status of the PTEN C-terminus (C-tail) cluster [3]: did not appear to alter | G1 cell population (A549 cells [4]; 40 μM, 24 hours): increase | G2 phase cell population (A549 cells [4]; 40 μM, 24 hours): decreased | S phase cell population (A549 cells [4]; 40 μM, 24 hours): decreased | cell cycle arrest (A549 cells [4]): arrest cells in G1 phase | reduction of phosphorylated, active form of P70S6K (p-P70S6K-Thr389) levels (p-P70 S6K (Thr389)): about 75% | expression of p-P70 S6K (Thr389), immunoblot (p-P70 S6K (Thr389)): significant decrease
